Measurements from US11628226B2, “Methods and gene therapy constructs for treating GM2 gangliosidoses” (priority 2016, dated 2023).

Legend:
[1] = system: β-hexosaminidase A (HexA); assay: HexA activity in midbrain (4-MUGS assay); type: in vivo, mouse; conditions: 16-week midbrain, drug alone or in conjunction with HEXB-HEXA
Description: Animal tissues were collected at designated 16 week end points and long term humane end points. The humane end points were determined by either […] loss of peak body weight or an inability to right itself in 10 seconds. Euthanization was carried out via CO2 asphyxiation followed by cardiac puncture and perfusion with 10 mL of chilled PBS. For biochemical analysis sections of the forebrain, midbrain, hindbrain, cervical spinal cord, and lumbar spinal cord were collected along with the heart, lungs, liver, spleen, kidney, gonads, and a section skeletal muscle. These were all frozen immediately for further processing. […]
Total hexosaminidase activity and Hex activity was measured as previously described (Maegawa et al. 2007; Tropak et al. 2004). […] Total hexosaminidase activity was determined through the use of the 4-methylumbelliferyl-2-acetamido-2-deoxy-β-D-glucopyranoside (4-MUG) assay, whereas the HexA enzyme activity alone was determined through the use of the 4-methylumbelliferyl-7-6-sulfo-2-acetamido-2-deoxy-β-D-glucopyranoside (4-MUGS) assay. Beta galactosidase activity was determined through the use of 4-methylumbelliferyl-β-D-galactopyranoside assay. […] Briefly, the samples were incubated with the fluorogenic substrate at 37° C. for 1 hour, then read on the plate reader with excitation wavelength of 365 nm and an emission wavelength of 450 nm. […]

Sandhoff mouse (hexb-/-) [2] = assay: Survival of SD mice (Kaplan-Meier, humane end point); type: in vivo; conditions: for Survival in conjunction with HEXB-HEXA: AAV9-HEXB-HEXA neonatal day one 2×10^13 vg/kg plus daily oral drug from eight weeks; for Survival time: untreated SD mice 110 days; for Mice that did not reach humane end point after 210 days: drug in conjunction with HEXB-HEXA, n=6 per group
Description: The hexb−/− experimental mice were obtained from Jackson Laboratories. From these, a colony was established at Queen's University through heterozygous breeding (hexb+/−). Genotyping of the mice was carried out via PCR amplification from animal ear punches taken at the time of weaning (three weeks of age). Experimental animals were obtained through mutant cross breeding (hexb−/−). The mice were maintained on a 12-hour light cycle from 7 am to 7 pm. All experimental protocols and procedures were performed in accordance with and were approved by the Queen's University Animal Care Committee.
Neonatal mice were intravenously injected with the ssAAV/HEXB-HEXA vector or a vehicle injection through the superficial temporal vein on day 0-1. Each treated mouse received an injection of 2.04×10^10 vg/mouse in a volume of 50 uL PBS with […] NaCl and 5% sorbitol (vehicle). Untreated mice received an injection of 50 uL vehicle. During the injections, the dames were removed from the pups and placed in a clean cage. The cage of the pups alone was placed on a heating pad to keep them warm. Pups were then removed from the cage, one at a time, and placed over an LED light to aid in visualization of the superficial temporal vein. The pups received the injection using a 30 gauge needle and 1 mL syringe. After the injection, pressure was applied to the mouse using sterile gauze and the pup was returned to the home cage. The dame was returned to the cage with the pups following the completion of all injections. Pups were then monitored closely for several days to ensure survival.
Starting at eight weeks of age, each drug treatment cohort received pyrimethamine, indomethacin, or ITF2357 at a dose of 1 mg/kg/day. Drug treatments were administered in the morning of the 12-hour light cycle via oral gavage using a 22 g curved feeding needle from Kent Scientific. ITF2357 was dissolved in ddH2O by heating to 85° C. while stirring for 1 hour. Indomethacin and pyrimethamine were each dissolved in 0.5% methylcellulose by heating to 80° C. while stirring for 1 hour. Each of these was stored at 4° C. for up to 2 weeks.
(§1) Animal tissues were collected at designated 16 week end points and long term humane end points. The humane end points were determined by either […] loss of peak body weight or an inability to right itself in 10 seconds. Euthanization was carried out via CO2 asphyxiation followed by cardiac puncture and perfusion with 10 mL of chilled PBS. For biochemical analysis sections of the forebrain, midbrain, hindbrain, cervical spinal cord, and lumbar spinal cord were collected along with the heart, lungs, liver, spleen, kidney, gonads, and a section skeletal muscle. These were all frozen immediately for further processing. For histological purposes, sections of the midbrain and liver were collected, fixed in 4% paraformaldehyde overnight and then immersed in 100% ethanol until sent to the Queen's University Histology department for paraffin embedding. Additional midbrain sections were collected from a number of mice and frozen in liquid nitrogen. Blood was collected via the saphenous vein on a monthly basis starting at 8 weeks and continuing until the humane end point. Additionally, blood was collected via the cardiac puncture during euthanization. Serum was separated from blood samples by centrifugation of 4000 rpm for 10 min and frozen immediately for storage.
To evaluate the efficacy of a single intravenous […] of rAAV9 expressing the human HEXA and HEXB cDNA in ameliorating the biochemical and neurological phenotype in SD, AAV9-HEXB-HEXA or a vehicle control was administered to postnatal day one neonates at a relatively low dose of 2×10^13 vg/kg via superficial temporal vein. Mice were all followed until they reached 32 weeks of age, or a humane end point.
Survival was analyzed with the log-rank (Mantel-Cox) test. […] This relationship is shown by the Kaplan-Meier plots in FIG. 3. […]

[3] = system: GM2 ganglioside storage in mouse brain; assay: GM2 ganglioside levels in midbrain by thin layer chromatography; type: in vivo; conditions: 16-week midbrain, drug on its own or in addition to HEXB-HEXA
Description: as §1, with “storage. […]” for “storage.”

Sandhoff mouse (hexb-/-) [4] = assay: Open field test of motor activity in SD mice; type: in vivo; conditions: HEXB-HEXA treated SD mice plus drug, week 24
Description: Behavioural testing was carried out on a bi-weekly basis from the age of eight weeks until each end point. The behavioural testing was done in three different parts and always assessed in the morning of the 12 hour light cycle.
Open Field Test: Used to assess overall locomotion and activity levels. The mouse was placed in a 40 cm×40 cm arena with walls. Time moving, rearing activity and the distance travelled were all electronically recorded by an ActiMot system. Speed was calculated by dividing the distance travelled by the time moving. Each mouse underwent one five minute trial.
To determine if the administration of AAV9-HexB-HexA improved motor activity in the neonatally treated SD mice, distance travelled in the 5-minute open-field test was analyzed. Testing began at eight weeks, when motor deterioration in SD mice begins to show and continued on a bi-weekly basis to 24 weeks. […] In FIG. 4, values at each point represent the mean.

[5] = SD mice, drug alone 1 mg/kg/day oral gavage from eight weeks

| SMILES | Further change in HexA activity [1] | Survival in conjunction with HEXB-HEXA (Sandhoff mouse (hexb-/-) [2]; SD mice) | Survival time (Sandhoff mouse (hexb-/-) [2]; [5]) | Mice that did not reach humane end point after 210 days (Sandhoff mouse (hexb-/-) [2]) | Additional decrease in GM2 ganglioside build-up [3] | Mobility in the open field test in conjunction with HEXB-HEXA (Sandhoff mouse (hexb-/-) [4]) | Survival (mean) (Sandhoff mouse (hexb-/-) [2]; SD mice, drug alone 1 mg/kg/day oral gavage from eight weeks, no significant effect) |
| --- | --- | --- | --- | --- | --- | --- | --- |
| CCN(CC)Cc1ccc2cc(COC(=O)Nc3ccc(C(=O)NO)cc3)ccc2c1 [ITF2357] | no further increase or decrease | significant increase in survival | 119 days | two | No additional decrease | significant increase in mobility | – |
| CCc1nc(N)nc(N)c1-c1ccc(Cl)cc1 [pyrimethamine] | – | – | – | – | – | – | 112.5 days |
| COc1ccc2c(c1)c(CC(=O)O)c(C)n2C(=O)c1ccc(Cl)cc1 [indomethacin] | no further increase or decrease | significant increase in survival | 123.5 days | two | No additional decrease | significant increase in mobility | – |
